Measured values: the NIST ThermoML archive (doi:10.1016/j.jct.2014.09.022)

Legend:
[1] = refractive index (Na D-line) (dimensionless); details: 298.15 K; 100 kPa; Liquid; Standard Abbe refractometry
[2] = 298.15 K, 100 kPa, Liquid
[3] = mn = molality of the nth substance listed, in mol/kg; details: 298.15 K, 100 kPa, Liquid; for viscosity: Capillary tube (Ostwald / Ubbelohde) method; for mass density: Vibrating tube method
[4] = refractive index (Na D-line) (dimensionless); mn = molality of the nth substance listed, in mol/kg; details: 298.15 K, 100 kPa, Liquid, Standard Abbe refractometry

CC(=O)N(C)C [N,N-dimethylethanamide]
Details | refractive index
[1] | 1.4278

[2]
Details | mass density [kg/m3] | viscosity [mPa·s]
Capillary tube (Ostwald / Ubbelohde) method | – | 0.989
Vibrating tube method | 936.31 | –

CCCCCCn1cc[n+](C)c1.[Cl-] [1-hexyl-3-methylimidazolium chloride] + CC(=O)N(C)C
Details | mass density, [3] [kg/m3] | refractive index, [4] | viscosity, [3] [mPa·s]
m1 = 0.0226 | 936.94 | 1.4283 | 1.029
m1 = 0.0468 | 937.6 | 1.429 | 1.042
m1 = 0.06 | 937.96 | 1.4295 | 1.057
m1 = 0.0797 | 938.48 | 1.4297 | 1.072
m1 = 0.1002 | 939.02 | 1.43 | 1.087
m1 = 0.1216 | 939.55 | 1.4303 | 1.106
m1 = 0.141 | 940.04 | 1.4307 | 1.123
m1 = 0.1621 | 940.56 | 1.431 | 1.129
m1 = 0.1781 | 940.95 | 1.4312 | 1.137
m1 = 0.2012 | 941.49 | 1.432 | 1.142

C(=NCCN=Cc1ccccn1)c1ccccn1 [N,N'-bis(2-pyridinylmethylene)-1,2-ethanediamine] + CC(=O)N(C)C
Details | mass density, [3] [kg/m3] | refractive index, [4] | viscosity, [3] [mPa·s]
m1 = 0.0471 | 937.73 | 1.4291 | 1.035
m1 = 0.091 | 939.12 | 1.43 | 1.069
m1 = 0.1327 | 940.31 | 1.4317 | 1.082
m1 = 0.1768 | 941.81 | 1.433 | 1.1
